Results on four compounds are retold here after paper PMC3365043, “Receptor-Targeting Phthalocyanine Photosensitizer for Improving Antitumor Photocytotoxicity” (PLoS ONE, 2012).

The conditions of data set [1]: in DMSO; ref 20; cited from earlier work. From the text:
Table 1 Photophysical parameters of ZnPc-GnRH conjugate in DMSO compared to that of ZnPc in DMSO. | column: Фf

For data set [2] the following is noted: in DMSO, cited from earlier work. An excerpt:
Table 1 Photophysical parameters of ZnPc-GnRH conjugate in DMSO compared to that of ZnPc in DMSO. | column: τs (ns)

The test system of data set [3] is S180 tumor-bearing mice. To be noted: cited from earlier work. From the text: We previously described a peptide-conjugated photosensitizer (ZnPc-(Lys)5), zinc phthalocyanine (ZnPc) conjugated with pentalysine peptidyl moiety, and reported its in vitro and in vivo efficacy. The pentalysine peptide renders water solubility of ZnPc that is otherwise not soluble in physiological condition and requires specialized formulation with, e.g., Cremophor EL. […] Herein we report the synthesis and the physicochemical characterization of this ZnPc-GnRH conjugate, along with the evaluation of its photodynamic activity at cellular level. […] This work p ...

In data set [4] the test system is HELF.
Procedure: (§1) The cell lines we used in the current study were human breast cancer cell lines (MDA-MB-231 and MCF-7), human hepatoblastoma cell line (HepG2) and human embryo lung fibroblasts (HELF). All these cell lines were purchased from American Type Culture Collection (ATCC, Manassas, VA, USA).
(§2) MDA-MB-231 and MCF-7 cells were maintained routinely in Dulbecco’s modified Eagle’s medium (DMEM) supplemented with 10% fetal calf serum (FCS) and antibiotics. HepG2 and HELF cells were grown in RPMI-1640 supplemented with 10% FCS and antibiotics. All cells were kept at 37°C in a humidified incubator with 5% CO2 atmosphere. The viability of cells was determined by Trypan blue dye exclusion. Cells were maintained in logarithmic phase with viability >95%.
(§3) Cells at a density of 2.5×10^5 per ml in a volume of 200 µl per well were placed in 96-multiwell black opaque plates and incubated overnight at 37°C under 5% CO2. […] The plates were illuminated at a light dosage of 1.5 J cm^−2 using a 670 nm SAS-DL3 medical laser (Beijing Shou’anshan Electronic Technology Co. Ltd. Beijing, China) and then returned to incubator; dark toxicity was measured in parallel. After 24 hr incubation, cell viability was measured on a microplate reader (Synergy 4, BioTek Instruments) using the AlamarBlue® fluorometric cell viability assay (BioSource International Inc., Camarillo, CA, USA) with λex 530 nm and λem 585 nm. […]
Data set [5] deals with MDA-MB-231. Nature of the data set: Phototoxicity and dark toxicity, AlamarBlue cell viability. To be noted: read-out: Phototoxicity IC50 (50% growth inhibition), 12 hr incubation, 670 nm laser, 1.5 J cm−2, viability after 24 hr. For orientation: Resazurin is reduced to fluorescent resorufin, in cell work by metabolically active cells.
Procedure: as §1, §2, §3
Data set [6] is described as follows: Singlet oxygen quantum yield determination (DPBF decay). The data set is classed as physicochemical. To be noted: in DMSO; 0.5 µM; DPBF decay at 417 nm; 670 nm laser at 80 mW cm−2; ZnPc reference (0.67); error less than 10%. The protocol: The PDT effect of ZnPc type photosensitizer is usually mediated by type II mechanism involving singlet oxygen (^1O2) as major cytotoxic agent. The quantum yield of ^1O2 generation by ZnPc-GnRH was determined by comparing with the un-substituted zinc phthalocyanine (ZnPc) as reference, which has a quantum yield of 0.67 in DMSO [21]. Briefly, a 2 ml DMSO solution of the mixture of the ZnPc-GnRH conjugate (0.5 µM) and 1,3-diphenylisobenzofuran (DPBF, a scavenger molecule for ^1O2), was introduced to the spectrophotometric cell of 1 cm path length and illuminated with a laser light (670 nm at 80 mW cm^−2) in the presence of air (without degassing). The DPBF decay at 417 nm was monitored every 5 s. The concentration of DPBF was kept lower than 3×10^−5 M during the experiment to avoid chain reactions induced by DPBF in the presence of ^1O2. The quantum yield measurement has an error of less than 10%.

Data set [7] deals with MDA-MB-231.
Procedure: as §1, §2, §3
Data set [8] has as its system MCF-7.
Procedure: as §1, §2, §3
Data set [9] relates to HepG2.
Procedure: as §1, §2, §3
Data set [10] deals with MCF-7. In words: Phototoxicity and dark toxicity, AlamarBlue cell viability. To be noted: read-out: Phototoxicity IC50 (50% growth inhibition), 12 hr incubation, 670 nm laser, 1.5 J cm−2, viability after 24 hr.
Procedure: as §1, §2, §3
A short description of data set [11]: Fluorescence quantum yield, comparative method with ZnPc as standard. The data set is classed as physicochemical. To be noted: in DMSO, ZnPc standard (Фf 0.2). How it is done: Fluorescence quantum yield (Фf) of ZnPc-GnRH conjugate was measured by a comparative method using ZnPc as a standard (Фf (ZnPc) in DMSO = 0.2) using the Eq. (1) [drawing 1] (1) where Фf and Ф0 are fluorescence quantum yields of the conjugate and standard, respectively. Au and A0 are absorbances of the conjugate and standard, respectively. Fu and F0 are areas under the emission curves of the conjugate and standard, respectively. nu and n0 are refractive indices of the solvents used for the conjugate and standard, respectively. The fluorescence of the conjugate and standard were measured on a Cary Eclipse Fluorescence spectrophotometer (Varian, Inc., Walnut Creek, CA).

Data set [12] can be described thus: Fluorescence decay time by time-correlated single photon counting. The format is physicochemical. To be noted: in DMSO, 300 K, fitted decay curve. The protocol:
Fluorescence decay time (τs) of ZnPc-GnRH conjugate was measured by time-correlated single photon counting experiment of fluorescence excited with a 1.2 ns pulse laser diode at 460 nm, performed on an Edinburgh Instruments FLS920 spectrofluorometer (Livingston, UK) at 300 K. Fluorescence lifetimes were estimated by fitting the decay data using an interactive deconvolution procedure based on Marquardt algorithm with software supplied by OriginLab.

Data set [13] deals with MCF-7 cells.
Procedure: 200 µl of MCF-7 cells (at a density of 2.5×10^5 per ml) were seeded in each well of 96-multiwell black opaque plates and incubated overnight at 37°C under 5% CO2. After treated with or without Cetrorelix (at a concentration of 7.5×10^−7 M), a GnRH antagonist, for 12 hr at 37°C, MCF-7 cells were washed twice with sterile PBS before fresh medium was added. These exponentially growing MCF-7 cells were then allowed to incubate with ZnPc-GnRH conjugate (at a concentration of 5×10^−6 M) for various time periods (5, 10, 20, 40, 80, 120 and 180 min) before the cellular uptakes were measured at different incubation time points as described above to determine the cellular uptake curves.
For data set [14], the system named is MDA-MB-231. Nature of the data set: Cellular uptake (fluorescence of cell lysate). The conditions noted are these: 10^−7 to 10^−4.5 M, 12 hr, 37°C, 1% DMSO (ZnPc-GnRH) or 0.2% Cremophor EL (ZnPc-COOH), mean of four experiments.
Procedure: (§4) Aliquots of cells (2.5×10^5 per ml growth medium) were placed in 96-multiwell black opaque plates (Costa) and incubated overnight at 37°C under 5% CO2. Various concentrations (10^−7, 10^−6.5, 10^−6, 10^−5.5, 10^−5 and 10^−4.5 M) of ZnPc-GnRH conjugate (in 1% DMSO) or ZnPc-COOH (in an additional 0.2% Cremophor EL) were added and incubated with cells at 37°C. After 12 hr incubation, the exponentially growing cells were washed with sterile PBS before lysis with NaOH (0.1 N, 0.2 ml with 1% SDS) to give a homogenous solution. The fluorescence of the cell extract was measured on a microplate reader (Synergy 4, BioTek Instruments) with λex = 610 nm and λem = 690 nm. The concentration of cellular protein was determined with a BCA Protein Assay Kit (BioTeke Corporation, Beijing, China). Standard curves were made with cell lysates treated as above with known added amounts of bovine serum albumin. Results are expressed as nmol photosensitizer per mg cell protein.
The subject of data set [15] is MCF-7. In words: Cellular uptake (fluorescence of cell lysate). The conditions noted are these: 10^−7 to 10^−4.5 M, 12 hr, 37°C, 1% DMSO (ZnPc-GnRH) or 0.2% Cremophor EL (ZnPc-COOH), lysate fluorescence λex 610/λem 690 nm, mean of four experiments.
Procedure: as §4
Data set [16] relates to HepG2. In words: Cellular uptake (fluorescence of cell lysate). The data set is classed as cell-based, human. The conditions noted are these: 10^−7 to 10^−4.5 M, 12 hr, 37°C, 0.2% Cremophor EL (ZnPc-COOH), mean of four experiments.
Procedure: as §4
The subject of data set [17] is HELF. In words: Cellular uptake (fluorescence of cell lysate). The format is cell-based, human. To be noted: 10^−7 to 10^−4.5 M, 12 hr, 37°C, 0.2% Cremophor EL (ZnPc-COOH), mean of four experiments.
Procedure: as §4

Where two headings read alike, the source gives them in different places.

The term IC50 denotes the midpoint of a concentration-inhibition curve.

Turning to `[Zn+2].c1ccc2c(c1)-c1nc-2nc2[n-]c(nc3nc([n-]c4nc(n1)-c1ccccc1-4)-c1ccccc1-3)c1ccccc21` [ZnPc, Zinc phthalocyanine], the “Fluorescence quantum yield (Фf)” value in data set [1] is 0.20 [20]. In addition, the “Fluorescence decay time (τs)” value is recorded as 1.22 ns in data set [2] (ref 23) and 3.6 ns in [2] (ref 24). Moreover, in [3] (murine brain), the “Distribution in murine brain” value was “very low level of distribution”.

For `CC(C)C[C@H](NC(=O)CNC(=O)[C@H](Cc1ccc(O)cc1)NC(=O)[C@H](CO)NC(=O)[C@H](Cc1c[nH]c2ccccc12)NC(=O)[C@H](Cc1c[nH]cn1)NC(=O)[C@H](CCC(=O)O)NC(=O)c1ccc2c3nc4nc(nc5[nH]c(nc6nc(nc([nH]3)c2c1)-c1ccccc1-6)c1ccccc51)-c1ccccc1-4)C(=O)N[C@@H](CCCNC(=N)N)C(=O)N1CCC[C@H]1C(=O)NCC(=O)O` [ZnPc-GnRH], the Dark toxicity entry in [4], in data set [7], in [8] and in data set [9] was “no obvious cellular dark toxicity” in each case. For the same compound, the Phototoxicity result in data set [4] (HELF, 10^−7 to 10^−4.5 M, 12 hr incubation, 670 nm, 1.5 J cm−2) is recorded as “no significant phototoxicity”; in data set [9] (HepG2, 10^−7 to 10^−4.5 M, 12 hr incubation, 670 nm, 1.5 J cm−2), “no significant phototoxicity”. In addition, the results for the concentration for half-maximal inhibition (IC50) in data set [5] and in data set [10] were 1320 nM and 1820 nM, respectively. The “Singlet oxygen quantum yield (ФΔ)” value in data set [6] is reported as 0.73. Besides, in data set [11], the “Fluorescence quantum yield (Фf)” value is listed as 0.17. In addition, the “Fluorescence decay time (τs)” value in [12] was 2.7 ns. In data set [13], the “Time at which cellular uptake reached the maximal level” value is roughly 2 h.

On to “Mono-substituted β-carboxyphthalocyanine zinc [ZnPc-COOH]”, for which the Cellular uptake entry in [14], in data set [15], in [16] and in data set [17] was “low levels of cellular uptakes” in each case.

As for “pentalysine phthalocyanine zinc [ZnPc-(Lys)5]”, in [3] (S180 tumor-bearing mice), the “Selectivity for tumor over brain tissue” value is listed as 6 fold and the “Selectivity for tumor over muscle tissue” value is recorded as 2 fold.
